ChEMBL document CHEMBL1123870, “Limited nerve impulse blockade by "leashed" local anesthetics” (1987)

Assay: Tonic inhibition of compound action potential by 50% was determined in the absence of avidin in desheathed frog sciatic nerves
Format: functional
Conditions: Amphibia, Sciatic nerve; read-out: ED50 (the source's name)

Compound | EC50 [µM]
CCN(CC)CCOC(=O)c1ccc(NC(=O)OCCOCCOCCO)cc1 | 3200
CCN(CC)CCOC(=O)c1ccc(NC(=O)CCCC[C@H]2SCC3NC(=O)NC32)cc1 (some centres not stated) | 4200
CCN(CC)CCOC(=O)c1ccc(NC(=O)OCCOCCOCCOCCOCCOCCO)cc1 | 6600

These reach a lower EC50. Values come first.

EC50 [µM] | Compound
1500 | CCCCN(C(=O)CCCC[C@H]1SCC2NC(=O)NC21)c1ccc(C(=O)OCCN(C)C)cc1 (some centres not stated)
2400 | CCN(CC)CCOC(=O)c1ccc(NC(=O)OCCOCCOCCOC(=O)CCCC[C@H]2SCC3NC(=O)NC32)cc1 (some centres not stated)
1300 | CCN(CC)CCOC(=O)c1ccc(N)cc1 [PROCAINE]
12 | CCCCNc1ccc(C(=O)OCCN(C)C)cc1 [TETRACAINE]
